Data taken from the NIST ThermoML archive (doi:10.1016/j.fluid.2007.04.009).
± gives the expanded uncertainty stated by the source.

Legend:
[1] = refractive index (Na D-line) (dimensionless); conditions: 298.15 K; 101.33 kPa; Liquid; Standard Abbe refractometry
[2] = 298.15 K; for surface tension liquid-gas: Pendant drop shape; for mass density: 101.33 kPa, Liquid
[3] = xn = mol fraction of the nth substance listed; conditions: 298.15 K; for surface tension liquid-gas: Pendant drop shape; for mass density: 101.3 kPa, Liquid

CCOC(C)(C)C [2-ethoxy-2-methylpropane]
Conditions	mass density [kg/m3]	refractive index	surface tension liquid-gas [mN/m]
[1]	–	1.37319 ± 0.00072	–
[2]	735.44 ± 0.35	–	19.73 ± 0.23

CCOC(C)(C)C [2-ethoxy-2-methylpropane] + CCCO
[3]
Conditions	mass density [kg/m3]	surface tension liquid-gas [mN/m]
x1 = 0.0572	795.04 ± 0.27	–
x1 = 0.067	–	23.58 ± 0.26
x1 = 0.1043	791.43 ± 0.27	–
x1 = 0.171	–	22.81 ± 0.25
x1 = 0.1752	786.11 ± 0.28	–
x1 = 0.2085	783.67 ± 0.27	–
x1 = 0.27	779.29 ± 0.28	–
x1 = 0.315	–	22.12 ± 0.25
x1 = 0.3317	775.03 ± 0.28	–
x1 = 0.3732	772.24 ± 0.28	–
x1 = 0.412	–	21.48 ± 0.24
x1 = 0.4205	769.2 ± 0.28	–
x1 = 0.4756	765.72 ± 0.28	–
x1 = 0.5326	762.15 ± 0.28	–
x1 = 0.5639	760.27 ± 0.28	–
x1 = 0.579	–	20.81 ± 0.24
x1 = 0.621	756.93 ± 0.28	–
x1 = 0.682	753.59 ± 0.28	–
x1 = 0.7188	751.55 ± 0.28	–
x1 = 0.7551	749.37 ± 0.28	–
x1 = 0.763	–	20.25 ± 0.23
x1 = 0.8334	745.06 ± 0.29	–
x1 = 0.8737	742.66 ± 0.29	–
x1 = 0.9142	740.45 ± 0.29	–
x1 = 0.9567	737.98 ± 0.29	–

CCCO [propan-1-ol]
Conditions	mass density [kg/m3]	refractive index	surface tension liquid-gas [mN/m]
[1]	–	1.38333 ± 0.00072	–
[2]	799.49 ± 0.29	–	23.89 ± 0.26
